Assay results reported in US20240034729A9, “HETEROCYCLIC COMPOUND, INTERMEDIATE, PREPARATION METHOD THEREFOR AND APPLICATION THEREOF” (WUHAN LL SCIENCE AND TECHNOLOGY DEVELOPMENT CO., LTD., priority 2018, published 2024).
pIC50: −log10 of the molar value. Like-named read-outs stand apart in the source and are kept apart here.

Biological target: hP2X3 (human purinergic P2X receptor subtype 3) (Homo sapiens (Human), UniProt P56373)
Assay: FLIPR calcium assay, hP2X3 expressed in HEK293 cells
Assay type: cell-based
Settings: read-out: P2X3 IC50
[1] = HEK293 cells expressing hP2X3, agonist BZ-ATP 2.5 μM, class symbols

Chain of hP2X3 (human purinergic P2X receptor subtype 3) (P56373 whole entry): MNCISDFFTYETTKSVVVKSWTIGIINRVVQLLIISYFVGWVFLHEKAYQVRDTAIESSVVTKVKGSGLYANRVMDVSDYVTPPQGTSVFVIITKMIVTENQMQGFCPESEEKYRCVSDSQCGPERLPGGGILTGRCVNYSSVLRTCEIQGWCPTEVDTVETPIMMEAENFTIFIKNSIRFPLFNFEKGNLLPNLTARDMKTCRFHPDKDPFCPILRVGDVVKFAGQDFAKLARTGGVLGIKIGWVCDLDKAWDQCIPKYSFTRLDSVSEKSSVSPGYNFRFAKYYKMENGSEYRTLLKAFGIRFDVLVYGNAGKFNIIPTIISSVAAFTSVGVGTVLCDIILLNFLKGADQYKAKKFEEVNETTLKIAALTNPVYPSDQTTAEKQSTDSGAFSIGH

pIC50 [1] | SMILES | pIC50
 | CNC(=O)C1(c2cc(F)c(-c3nc4cc(C)ccn4c3C[C@H]3CN(C(=O)OC)CCO3)c(F)c2)CC1 [Compound 66] | 6.70 to 7.30
 | CNC1(c2cc(F)c(-c3nc4cc(C)ccn4c3C[C@H]3CN(C(=O)OC)CCO3)c(F)c2)CC1 [Compound 67, methyl (S)-2-((2-(2,6-difluoro-4-(1-(methylamino)cyclopropyl)phenyl)-7-methylimidazo[1,2-a]pyridin-3-yl)methyl) morpholine-4-carboxylate] | 7.30 to 8.00
 | CNC(c1cc(F)c(-c2nc3cc(C)ccn3c2C[C@H]2CN(C(=O)OC)CCO2)c(F)c1)C(F)(F)F (stereo partly drawn) [Compound 68, methyl (S)-2-((2-(2,6-difluoro-4-(2,2,2-trifluoro-1-(methylamino)ethyl)phenyl)-7-methylimidazo[1,2-a]pyridin-3-yl)methyl)morpholine-4-carboxylate] | 7.30 to 8.00
 | CNC1(c2cc(F)c(-c3nc4cc(C)ccn4c3C[C@H]3CN(C(=O)OC)CCO3)c(F)c2)COC1 [Compound 69, methyl (S)-2-((2-(2,6-difluoro-4-(3-(methylamino)oxetan-3-yl)phenyl)-7-methylimidazo[1,2-a]pyridin-3-yl)methyl) morpholine-4-carboxylate] | 7.30 to 8.00
 | COC(=O)N1CCO[C@@H](Cc2c(-c3c(F)cc(C4(N)COC4)cc3F)nc3cc(C)ccn23)C1 [Compound 70] | 7.30 to 8.00
 | COC(=O)N1CCO[C@@H](Cc2c(-c3c(F)cc(Nc4ccc(Cl)o4)cc3F)nc3cc(C)ccn23)C1 [Compound 72] | 6.70 to 7.30
 | COC(=O)N1CCO[C@@H](Cc2c(-c3c(F)cc(Nc4ccc(F)o4)cc3F)nc3cc(C)ccn23)C1 [Compound 73] | 6.70 to 7.30
 | COC(=O)N1CCO[C@@H](Cc2c(-c3c(F)cc(Nc4ccco4)cc3F)nc3cc(C)ccn23)C1 [Compound 74] | 6.70 to 7.30
 | COC(=O)N1CCO[C@@H](Cc2c(-c3c(F)cc(NCCCC(N)=O)cc3F)nc3cc(C)ccn23)C1 [Compound 77] | > 8.00
 | COC(=O)N1CCO[C@@H](Cc2c(-c3c(F)cc(NC4CC(=O)C4)cc3F)nc3cc(C)ccn23)C1 [Compound 78] | 7.30 to 8.00
 | COC(=O)N1CCO[C@@H](Cc2c(-c3c(F)cc(NC4CCC(=O)CC4)cc3F)nc3cc(C)ccn23)C1 [Compound 80, methyl (S)-2-((2-(2,6-difluoro-4-((4-carbonylcyclohexyl)amino)phenyl)-7-methylimidazo[1,2-a]pyridin-3-yl)methyl) morpholine-4-carboxylate] | 7.30 to 8.00
 | COC(=O)N1CCO[C@@H](Cc2c(-c3c(F)cc(NC(=O)C4CCC(C(=O)O)CC4)cc3F)nc3cc(C)ccn23)C1 (stereo partly drawn) [Compound 82] | 7.30 to 8.00
 | COC(=O)N1CCO[C@@H](Cc2c(-c3c(F)cc(NC(=O)C4CCC(=O)CC4)cc3F)nc3cc(C)ccn23)C1 [Compound 83] | 6.70 to 7.30
 | COC(=O)N1CCO[C@@H](Cc2c(-c3c(F)cc(NC(=O)c4ccccc4)cc3F)nc3cc(C)ccn23)C1 [Compound 84] | 6.70 to 7.30
 | COC(=O)N1CCO[C@@H](Cc2c(-c3c(F)cc(NC(=O)c4ccc(C(=O)O)cc4)cc3F)nc3cc(C)ccn23)C1 [Compound 85, (S)-4-((3,5-difluoro-4-(3-((4-(carbomethoxy<methoxycarbonyl>)morpholin-2-yl)methyl)-7-methylimidazo[1,2-a]pyridin-2-yl)phenyl)carbamoyl)benzoic acid] | 6.70 to 7.30
 | COC(=O)N1CCO[C@@H](Cc2c(-c3c(F)cc(NC(=O)c4ccncc4)cc3F)nc3cc(C)ccn23)C1 [Compound 86] | 7.30 to 8.00
 | C=CC(=O)Nc1cc(F)c(-c2nc3cc(C)ccn3c2C[C@H]2CN(C(=O)OC)CCO2)c(F)c1 [Compound 87] | 6.70 to 7.30
 | COC(=O)N1CCO[C@@H](Cc2c(-c3c(F)cc(NC(=O)C#CC(=O)O)cc3F)nc3cc(C)ccn23)C1 [Compound 88] | 7.30 to 8.00
 | COC(=O)N1CCO[C@@H](Cc2c(-c3c(F)cc(NC(=O)CC(C)(C)O)cc3F)nc3cc(C)ccn23)C1 [Compound 90] | 7.30 to 8.00
 | COC(=O)N1CCO[C@@H](Cc2c(-c3c(F)cc(NC(=O)CC(C)(C)C(=O)O)cc3F)nc3cc(C)ccn23)C1 [Compound 91] | > 8.00
 | COC(=O)N1CCO[C@@H](Cc2c(-c3c(F)cc(NC(=O)CC(C)C(=O)O)cc3F)nc3cc(C)ccn23)C1 (stereo partly drawn) [Compound 92] | 7.30 to 8.00
 | COC(=O)N1CCO[C@@H](Cc2c(-c3c(F)cc(NC(=O)CCC(C)(C)O)cc3F)nc3cc(C)ccn23)C1 [Compound 93] | 7.30 to 8.00
 | CNC(=O)c1cc(F)c(-c2nc3cc(C)cnc3n2C[C@H]2CN(C(=O)OC)CCO2)c(F)c1 [Compound 94, methyl (S)-2-((2-(2,6-difluoro-4-(methylcarbamoyl)phenyl)-6-methyl-3H-imidazo[4,5-b]pyridin-3-yl)methyl)morpholine-4-carboxylate] | 6.70 to 7.30
 | COC(=O)N1CCO[C@@H](Cc2c(-c3c(F)cc(NC(=O)CC4(C(=O)O)CC4)cc3F)nc3cc(C)ccn23)C1 [Compound 95] | 7.30 to 8.00
 | COC(=O)N1CCO[C@@H](Cc2c(-c3c(F)cc(NC(=O)CC4(C#N)CC4)cc3F)nc3cc(C)ccn23)C1 [Compound 96] | 7.30 to 8.00

pIC50 [1] | SMILES | pIC50
 | COC(=O)N1CCO[C@@H](Cc2c(-c3c(F)cc(-n4cc[nH]c4=O)cc3F)nc3cc(C)ccn23)C1 [Compound 98] | 7.30 to 8.00
 | COC(=O)N1CCO[C@@H](Cc2c(-c3c(F)cc(-n4ccoc4=O)cc3F)nc3cc(C)ccn23)C1 [Compound 99] | 7.30 to 8.00
 | COC(=O)N1CCO[C@@H](Cc2c(-c3c(F)cc(N4C=CCC4=O)cc3F)nc3cc(C)ccn23)C1 [Compound 100] | 7.30 to 8.00
 | COC(=O)N1CCO[C@@H](Cc2c(-c3c(F)cc(N4CCCC4=O)cc3F)nc3cc(C)ccn23)C1 [Compound 101] | 7.30 to 8.00
 | COC(=O)N1CCO[C@@H](Cc2c(-c3c(F)cc(-c4ccn(C(F)F)n4)cc3F)nc3cc(C)ccn23)C1 [Compound 102] | > 8.00
 | COC(=O)N1CCO[C@@H](Cc2c(-c3c(F)cc(-c4cc[nH]n4)cc3F)nc3cc(F)ccn23)C1 [Compound 103] | 6.70 to 7.30
 | COC(=O)N1CCO[C@@H](Cc2c(-c3c(F)cc(-c4nc(S(N)(=O)=O)c[nH]4)cc3F)nc3cc(C)ccn23)C1 [Compound 105] | > 8.00
 | COC(=O)N1CCO[C@@H](Cc2c(-c3c(F)cc(-c4nc(C#N)c[nH]4)cc3F)nc3cc(F)ccn23)C1 [Compound 106] | 7.30 to 8.00
7.30 to 8.00 | COC(=O)N1CCO[C@@H](Cc2c(-c3c(F)cc(-n4cnc(C(=O)O)c4)cc3F)nc3cc(C)ccn23)C1 [Compound 107, (S)-1-(3,5-difluoro-4-(3-((4-(carbomethoxy<methoxycarbonyl>)morpholin-2-yl)methyl)-7-methylimidazo[1,2-a]pyridin-2-yl)phenyl)-1H-imidazole-4-carboxylic acid] | 
5.30 to 6.70 | COC(=O)c1cn(-c2cc(F)c(-c3nc4cc(C)ccn4c3C[C@H]3CN(C(=O)OC)CCO3)c(F)c2)cn1 [Compound 108] | 
 | COC(=O)N1CCO[C@@H](Cc2c(-c3c(F)cc(-n4cnc(C(F)(F)F)c4)cc3F)nc3cc(C)ccn23)C1 [Compound 109, methyl (S)-2-((2-(2,6-difluoro-4-(4-trifluoromethyl-1H-imidazol-1-yl)phenyl)-7-methylimidazo[1,2-a]pyridin-3-yl)methyl)morpholine-4-carboxylate] | 6.70 to 7.30
 | COC(=O)N1CCO[C@@H](Cc2c(-c3c(F)cc(-n4cnc(N)c4)cc3F)nc3cc(C)ccn23)C1 [Compound 111] | 7.30 to 8.00
5.30 to 6.70 | COC(=O)N1CCO[C@@H](Cc2c(-c3c(F)cc(-n4cnc(OC)c4)cc3F)nc3cc(C)ccn23)C1 [Compound 112] | 
5.30 to 6.70 | COC(=O)N1CCO[C@@H](Cc2c(-c3c(F)cc(-n4cnc(C5(C(=O)O)CC5)c4)cc3F)nc3cc(C)ccn23)C1 [Compound 113] | 
 | COC(=O)N1CCO[C@@H](Cc2c(-c3c(F)cc(-c4nc(C(=O)O)co4)cc3F)nc3cc(C)ccn23)C1 [Compound 114, (S)-2-(3,5-difluoro-4-(3-((4-(methoxycarbonyl)morpholin-2-yl)methyl)-7-methylimidazo[1,2-a]pyridin-2-yl)phenyl)oxazole-4-carboxylic acid] | 7.30 to 8.00
5.30 to 6.70 | COC(=O)N1CCO[C@@H](Cc2c(-c3c(F)cc(-c4nc(C(C)(C)O)c[nH]4)cc3F)nc3cc(C)ccn23)C1 [Compound 115] | 
 | COC(=O)N1CCO[C@@H](Cc2c(-c3c(F)cc(-c4nc(C5(O)CC5)c[nH]4)cc3F)nc3cc(C)ccn23)C1 [Compound 116] | 7.30 to 8.00
 | COC(=O)N1CCO[C@@H](Cc2c(-c3c(F)cc(-n4cnc(C(C)(C)O)c4)cc3F)nc3cc(C)ccn23)C1 [Compound 117, methyl (S)-2-((2-(2,6-difluoro-4-(4-(2-hydroxypropan-2-yl)-1H-imidazol-1-yl)phenyl)-7-methylimidazo[1,2-a]pyridin-3-yl)methyl)morpholine-4-carboxylate] | 7.30 to 8.00
5.30 to 6.70 | COC(=O)N1CCO[C@@H](Cc2c(-c3c(F)cc(-c4nc(C5(O)CC5)co4)cc3F)nc3cc(C)ccn23)C1 [Compound 118] | 
 | COC(=O)N1CCO[C@@H](Cc2c(-c3c(F)cc(-c4ncc(C#N)o4)cc3F)nc3cc(C)ccn23)C1 [Compound 120] | > 8.00
5.30 to 6.70 | CCC(=O)N1CCO[C@@H](Cc2c(-c3c(F)cc(-c4nc(C#N)co4)cc3F)nc3cc(C)ccn23)C1 [Compound 121] | 
5.30 to 6.70 | COC(=O)N1CCO[C@@H](Cc2c(-c3c(F)cc(-c4ncco4)cc3F)nc3cc(F)ccn23)C1 [Compound 122] | 
 | COC(=O)N1CCO[C@@H](Cc2c(-c3c(F)cc(-c4ncco4)cc3F)nc3cc(CF)ccn23)C1 [Compound 123] | 6.70 to 7.30
 | COC(=O)N1CCO[C@@H](Cc2c(-c3c(F)cc(-n4ccc(C#N)n4)cc3F)nc3cc(C)ccn23)C1 [Compound 124] | > 8.00
 | COC(=O)N1CCO[C@@H](Cc2c(-c3c(F)cc(-n4ccc(C(=O)O)n4)cc3F)nc3cc(C)ccn23)C1 [Compound 125, (S)-1-(3,5-difluoro-4-(3-((4-(methoxycarbonyl)morpholin-2-yl)methyl)-7-methylimidazo[1,2-a]pyridin-2-yl)phenyl)-1H-pyrazole-3-carboxylic acid] | > 8.00

SMILES | pIC50 [1] | pIC50
COC(=O)N1CCO[C@@H](Cc2c(-c3c(F)cc(-n4nccc4C#N)cc3F)nc3cc(C)ccn23)C1 [Compound 124-2] | ≥ 8.00 | 
